Laboratory results reported in US20100323890A1, “METHOD FOR IMPROVING THE RESISTANCE OF PLANTS TO STRESS AND CORRESPONDING PRODUCTS” (priority 2007, published 2010).

Tested on: Arabidopsis thaliana
Assay: Arabidopsis thaliana seedling growth on culture medium containing 1 μM atrazine (atrazine tolerance)
Format: in vivo
Conditions: 15 days of incubation
Procedure: In this context, a mixture of sucrose and putrescine were tested. […] For a first control, no carbohydrate or polyamine were added to the culture medium. For a second control, only sucrose, at a rate of 3%, which is equivalent to a concentration of 87 millimolar, was added thereto. Finally, for a test according to the present invention, sucrose, at a rate of 3% and putrescine, at a rate of 3 to 6 mM, were added to the culture medium. The Petri dishes were stored for 48 hrs at 4° C. and transferred to 22° C. for a photoperiod of 16 hours per day at 4500 lux. The parameters characterizing the plant growth were referenced after 15 days of incubation: the biomass (% fresh weight) and chlorophyll (μg/seedling) produced were determined; the development of the main root (cm) and the secondary root system (primordia/seedlings) were recorded.

Compound | seedling development in the presence of atrazine (FIG. 1) (no carbohydrate or polyamine added) | effect on atrazine inhibition / atrazine resistance, by size of the seedlings (FIG. 1)
CCNc1nc(Cl)nc(NC(C)C)n1 [atrazine, 2-chloro-4-ethylamino-6-isopropylamine-1,3,5-triazine] | unable to develop the photosynthetic apparatus | 
OC[C@H]1O[C@@](CO)(O[C@H]2O[C@H](CO)[C@@H](O)[C@H](O)[C@H]2O)[C@@H](O)[C@@H]1O [sucrose] |  | makes it possible to lift the atrazine inhibition effect
